Reference: patent US12655142B2 (Merck Patent GmbH, priority 2019, dated 2026)

Assays:
[1] = target: T1, c-Kit(V654A) (Homo sapiens, UniProt P10721, V654A); assay: c-Kit(V654A) assay (33P-ATP filter binding kinase assay); type: biochemical; conditions: recombinant human c-Kit aa 544-end V654A, ATP 200 μM
T1 construct: recombinant human c-Kit, amino acids 544-end containing the V654A mutation; GST (N)
In short: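 Radiometric filter-binding read-out: substrate 33P incorporation counted by scintillation after P30 filtermat washes in 75 mM phosphoric acid and methanol. Enzyme: N-GST recombinant human c-Kit aa 544-end carrying V654A.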

[2] = Determination of solubility; conditions: 20 mM Sorensen phosphate buffer, pH 7.4, aqueous buffer, kinetic from dmso stock
Procedure: In a 96 well filtration plate, 2 μL of a 10 mM solution of the test compound in DMSO is added to 98 μL of 20 mM Sorensen phosphate buffer with pH 7.4. The mixture is incubated at room temperature for 120 min while agitating at 250 rpm followed by centrifugation at 2500 rpm for 3 min. After dilution by a factor of 2, the concentration of the test compound is determined using HPLC/UPLC with detection at a suitable wavelength and by comparison to a corresponding compound standard.

[3] = target: T2, GIST430/654 cell line expressing mutated constitutively active cKIT receptor tyrosine kinase (Δ560-576 deletion and V654A point mutation) (Homo sapiens, UniProt P10721, DEL560-576/V654A); assay: Cellular cKIT autophosphorylation (phospho-Y307-cKIT, Luminex bead assay) in GIST430/654 cells; type: cell-based; conditions: compounds 45 min, read-out: GIST 430/654 IC50
T2 construct: endogenous in cells; host or cells: GIST430/654 cells
T2 sequence (P10721 with tags, fused parts or gaps DEL560-576/V654A): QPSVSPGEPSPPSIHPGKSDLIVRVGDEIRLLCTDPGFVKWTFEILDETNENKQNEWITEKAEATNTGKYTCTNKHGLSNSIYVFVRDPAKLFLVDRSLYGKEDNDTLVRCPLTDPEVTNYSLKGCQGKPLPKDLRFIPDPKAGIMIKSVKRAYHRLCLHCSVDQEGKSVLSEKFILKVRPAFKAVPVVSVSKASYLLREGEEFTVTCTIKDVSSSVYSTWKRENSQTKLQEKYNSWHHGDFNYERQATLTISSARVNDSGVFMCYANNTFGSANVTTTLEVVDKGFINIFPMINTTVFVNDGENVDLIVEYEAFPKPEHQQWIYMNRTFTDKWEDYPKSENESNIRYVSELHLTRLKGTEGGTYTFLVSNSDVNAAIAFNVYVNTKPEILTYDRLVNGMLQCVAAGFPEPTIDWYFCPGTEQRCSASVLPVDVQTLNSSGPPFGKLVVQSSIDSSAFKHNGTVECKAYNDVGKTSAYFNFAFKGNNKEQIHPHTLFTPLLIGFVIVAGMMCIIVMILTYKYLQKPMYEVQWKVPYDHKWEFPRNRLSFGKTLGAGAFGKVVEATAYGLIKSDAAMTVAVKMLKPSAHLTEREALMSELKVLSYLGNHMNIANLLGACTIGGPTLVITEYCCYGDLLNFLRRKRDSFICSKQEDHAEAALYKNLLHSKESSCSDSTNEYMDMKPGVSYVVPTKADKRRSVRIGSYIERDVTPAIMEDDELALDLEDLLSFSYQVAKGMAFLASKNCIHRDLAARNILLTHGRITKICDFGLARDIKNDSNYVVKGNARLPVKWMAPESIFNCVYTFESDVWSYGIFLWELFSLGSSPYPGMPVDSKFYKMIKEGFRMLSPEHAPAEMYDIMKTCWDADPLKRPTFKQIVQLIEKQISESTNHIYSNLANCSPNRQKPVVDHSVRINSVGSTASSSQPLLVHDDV
In short: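 Phospho-Y307 cKIT in lysates was measured on a Luminex bead assay, with total-cKIT capture overnight at 4 °C and phosphospecific plus PE secondary detection. Cells had 45 min exposure to a compound dilution series the day after plating: GIST430 (Δ560-576) or GIST430/654 (Δ560-576/V654A, grown with 100 nM imatinib). IC50 values are relative to 0.3% DMSO-treated cells.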

[4] = Determination of Efflux-Ratio (ER) in Caco-2 cells; conditions: human, Caco-2, pH 7.4
[5] = target: T3, GIST430 cell line expressing constitutive active cKIT receptor tyrosine kinase (Δ560-576 deletion) (Homo sapiens, UniProt P10721, DEL560-576); assay: Cellular cKIT autophosphorylation (phospho-Y307-cKIT, Luminex bead assay) in GIST430 cells; type: cell-based; conditions: cKIT autophosphorylation, GIST430 cells, compounds 45 min; read-out: GIST 430 IC50
T3 construct: endogenous in cells; host or cells: GIST430 cells
T3 sequence (P10721 with tags, fused parts or gaps DEL560-576): as the sequence (P10721 with tags, fused parts or gaps DEL560-576/V654A) above, with A612V counted along it
Procedure: Assay Principle for Cellular Testing of cKIT Mutant Inhibitors
The GIST430 cell line expressing constitutive active cKIT receptor tyrosine kinase (Δ560-576 deletion) and the Imatinib resistant GIST430/654 cell line expressing mutated constitutively active cKIT receptor tyrosine kinase (Δ560-576 deletion and V654A point mutation) were employed for assessing cellular potency of compounds. Cellular activity of mutant cKIT was determined by the degree of cKIT autophosphorylation at tyrosine 307 using a Luminex-based bead assay. GIST430 cells were plated with 22,000 cells per well of a 96-well plate in 100 μl medium (85% IMDM/15% FCS) and GIST430/654 cells were plated with 25,000 cells per well of a 96-well plate in 100 μl medium (85% IMDM/15% FCS supplemented with 100 nM Imatinib). At the following day compounds were added in a serial dilution for 45 min. Then, cells were lysed with 90 μl lysis buffer (20 mM Hepes pH 7.5, 200 mM NaCl, 1.5 mM MgCl2×6H2O, 0.4 mM EDTA, 1% Triton-X-100, 1% Phosphatase-Inhibitor II, 20 mM β-Glycerolphosphat, 0.1% Protease-Inhibitor Cocktail III, 0.01% Benzonase) and lysates were cleared by centrifugation through a 96-well filter plate (0.65 μm). Samples were incubated with Luminex-beads which were coupled with an anti-total cKIT antibody overnight at 4° C. under gentle agitation. For detection of phospho-Y307-cKIT a phosphospecific antibody and a species-specific PE-labeled secondary antibody were added. The amount of phospho-Y307-cKIT was determined in a Luminex 200 instrument measuring 100 events per well within 60 seconds.
Counts from samples treated with compounds were calculated as percent of control from solvent treated (0.3% DMSO) samples. Dose-response curves were fitted and IC50 values were determined using Genedata Screener software.

T1 sequence (P10721 544-976 V654A): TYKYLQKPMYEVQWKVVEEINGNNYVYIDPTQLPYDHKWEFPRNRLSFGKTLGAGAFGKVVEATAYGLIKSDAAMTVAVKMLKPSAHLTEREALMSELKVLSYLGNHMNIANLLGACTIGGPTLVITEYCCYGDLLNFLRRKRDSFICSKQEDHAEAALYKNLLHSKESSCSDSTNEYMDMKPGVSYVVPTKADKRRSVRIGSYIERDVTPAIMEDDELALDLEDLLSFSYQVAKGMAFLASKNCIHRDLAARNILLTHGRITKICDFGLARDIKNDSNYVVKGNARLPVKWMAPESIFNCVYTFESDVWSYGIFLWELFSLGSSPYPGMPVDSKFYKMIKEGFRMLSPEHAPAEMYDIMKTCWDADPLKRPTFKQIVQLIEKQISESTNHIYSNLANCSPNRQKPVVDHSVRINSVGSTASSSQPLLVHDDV

Compound | IC50 [1] | solubility at 120 min [2] | IC50 [3] | efflux ratio at 2 h, 1 μM [4] | IC50 [5]
c1ccn2c(-c3cc(NCc4ccc(-n5ccnc5)cc4)ncn3)cnc2c1 [A8, (6-Imidazo[1,2-a]23yridine-3-yl-pyrimidin-4-yl)-(4-imidazol-1-yl-benzyl)-amine] | 23 nM | ≥ 25 µM | 500 nM | < 15 | 
COc1ccn2c(-c3cc(NCc4ccc(N5CCCCC5=O)cc4)ncn3)cnc2c1 [A12, 1-(4-{[(6-{7-methoxyimidazo[1,2-a]24yridine-3-yl}pyrimidin-4-yl)amino]methyl}phenyl)piperidin-2-one] | 87 nM | ≥ 25 µM | 1100 nM |  | 
c1ccn2c(-c3cc(NCc4ccc(C5=NCCN5)cc4)ncn3)cnc2c1 [A15, [4-(4,5-Dihydro-1H-imidazol-2-yl)-benzyl]-(6-imidazo[1,2-a]pyridin-3-yl-pyrimidin-4-yl)-amine] | 320 nM | ≥ 25 µM |  |  | 
Cn1cc(-c2ccc(CNc3cc(-c4cnc5cc(OCCN6CCCC6)ccn45)ncn3)cc2)cn1 [A60, [4-(1-methyl-1H-pyrazol-4-yl)-benzyl]-{6-[7-(2-pyrrolidin-1-yl-ethoxy)-imidazo[1,2-a]pyridin-3-yl]-pyrimidin-4-yl}-amine] | 8 nM | ≥ 25 µM | 70 nM | < 15 | 4.9 nM
Cn1ncc(-c2ccc(CNc3cc(-c4cnc5cc(OCCN6CCCC6)ccn45)ncn3)cc2)n1 [A73, [4-(2-methyl-2H-[1,2,3]triazol-4-yl)-benzyl]-{6-[7-(2-pyrrolidin-1-yl-ethoxy)-imidazo[1,2-a]pyridin-3-yl]-pyrimidin-4-yl}-amine] | 4 nM | ≥ 25 µM | 98 nM | < 15 | 
c1cn(-c2ccc(CNc3cc(-c4cnc5cc(OCC6CCN(C7COC7)CC6)ccn45)ncn3)cc2)nn1 [A83, {6-[7-(1-oxetan-3-yl-piperidin-4-ylmethoxy)-imidazo[1,2-a]pyridin-3-yl]-pyrimidin-4-yl}-(4-[1,2,3]triazol-1-yl-benzyl)-amine] | 25 nM | ≥ 25 µM | 310 nM |  | 
Cn1cc(-c2ccc(CNc3cc(-c4cnc5cc(OCCN6CCC6)ccn45)ncn3)cc2)cn1 [A99, 6-{7-[2-(azetidin-1-yl)ethoxy]imidazo[1,2-a]pyridin-3-yl}-N-{[4-(1-methyl-1H-pyrazol-4-yl)phenyl]methyl}pyrimidin-4-amine] | 8.2 nM | ≥ 25 µM | 62 nM | 15 to 50 | 
Cn1ncc(-c2ccc(CNc3cc(-c4cnc5cc(OCCN6CCC6)ccn45)ncn3)cc2)n1 [A100, 6-{7-[2-(azetidin-1-yl)ethoxy]imidazo[1,2-a]pyridin-3-yl}-N-{[4-(2-methyl-2H-1,2,3-triazol-4-yl)phenyl]methyl}pyrimidin-4-amine] | 9.2 nM | ≥ 25 µM | 38 nM | < 15 | 
c1ccn2c(-c3cc(NCc4ccc(N5CC6CC6C5)nc4)ncn3)cnc2c1 (centres unmarked) [A149, [6-(3-aza-bicyclo[3.1.0]hex-3-yl)-pyridin-3-ylmethyl]-(6-imidazo[1,2-a]pyridin-3-yl-pyrimidin-4-yl)-amine] | 6.2 nM | ≥ 25 µM | 270 nM |  | 
Cc1cc(N2CCCC2)ncc1CNc1cc(-c2cnc3ccccn23)ncn1 [A154, (6-imidazo[1,2-a]pyridin-3-yl-pyrimidin-4-yl)-(4-methyl-6-pyrrolidin-1-yl-pyridin-3-ylmethyl)-amine] | 180 nM | ≥ 25 µM |  |  | 
Cc1cc(N2CC[C@@H](F)C2)ncc1CNc1cc(-c2cnc3ccccn23)ncn1 [A156, [6-((R)-3-fluoro-pyrrolidin-1-yl)-4-methyl-pyridin-3-ylmethyl]-(6-imidazo[1,2-a]pyridin-3-yl-pyrimidin-4-yl)-amine] | 180 nM | ≥ 25 µM |  |  | 
Cn1cc(-c2ccc(CNc3cc(-c4cnc5cc(CCN6CCCC6)ccn45)ncn3)cc2)cn1 [A168, [4-(1-methyl-1H-pyrazol-4-yl)-benzyl]-{6-[7-(2-pyrrolidin-1-yl-ethyl)-imidazo[1,2-a]pyridin-3-yl]-pyrimidin-4-yl}-amine] | 27 nM | ≥ 25 µM | 630 nM | < 15 | 
Cn1cc(-c2ccc(CNc3cc(-c4cnc5cc(CCN6CCN(C7COC7)CC6)ccn45)ncn3)cc2)cn1 [A170, [4-(1-methyl-1H-pyrazol-4-yl)-benzyl]-(6-{7-[2-(4-oxetan-3-yl-piperazin-1-yl)-ethyl]-imidazo[1,2-a]pyridin-3-yl}-pyrimidin-4-yl)-amine] | 33 nM | ≥ 25 µM | 330 nM |  | 
Cn1cc(-c2ccc(CNc3cc(-c4cnc5cc(OCCN6CCN7CCC6C7)ccn45)ncn3)cc2)cn1 (centres unmarked) [A212, (6-{7-[2-(1,4-diaza-bicyclo[3.2.1]oct-4-yl)-ethoxy]-imidazo[1,2-a]pyridin-3-yl}-pyrimidin-4-yl)-[4-(1-methyl-1H-pyrazol-4-yl)-benzyl]-amine] | 7.3 nM | ≥ 25 µM | 210 nM | > 50 | 
Cc1nc(-c2ccc(CNc3cc(-c4cnc5cc(OCCCN6CCCC6)ccn45)ncn3)cc2)co1 [A242, [4-(2-methyl-oxazol-4-yl)-benzyl]-{6-[7-(3-pyrrolidin-1-yl-propoxy)-imidazo[1,2-a]pyridin-3-yl]-pyrimidin-4-yl}-amine] | 1.1 nM | ≥ 25 µM | 10000 nM | < 15 | 
c1nc(NCc2ccc(-c3cocn3)cc2)cc(-c2cnc3cc(OCCCN4CCCC4)ccn23)n1 [A252, (4-oxazol-4-yl-benzyl)-{6-[7-(3-pyrrolidin-1-yl-propoxy)-imidazo[1,2-a]pyridin-3-yl]-pyrimidin-4-yl}-amine] | 2.2 nM | ≥ 25 µM | 47 nM | < 15 | 
FC(F)(F)Oc1ccc(CNc2cc(-c3cnc4cc(OCCN5CCn6nncc6C5)ccn34)ncn2)cc1 [A265, 6-[7-(2-{4H,5H,6H,7H-[1,2,3]triazolo[1,5-a]pyrazin-5-yl}ethoxy)imidazo[1,2-a]pyridin-3-yl]-N-{[4-(trifluoromethoxy)phenyl]methyl}pyrimidin-4-amine] | 6.8 nM |  | 78 nM | < 15 | 3.3 nM
Cn1cc(-c2ccc(CNc3cc(-c4cnc5cc(-n6cncn6)ccn45)ncn3)cc2)cn1 [A266, N-{[4-(1-methyl-1H-pyrazol-4-yl)phenyl]methyl}-6-[7-(1H-1,2,4-triazol-1-yl)imidazo[1,2-a]pyridin-3-yl]pyrimidin-4-amine] | 7.9 nM |  | 130 nM | < 15 | 5.1 nM
Cc1cn(-c2ccn3c(-c4cc(NCc5ccc(-c6cnn(C)c6)cc5)ncn4)cnc3c2)cn1 [A267, 6-[7-(4-methyl-1H-imidazol-1-yl)imidazo[1,2-a]pyridin-3-yl]-N-{[4-(1-methyl-1H-pyrazol-4-yl)phenyl]methyl}pyrimidin-4-amine] | 4.4 nM |  | 63 nM | < 15 | 1.7 nM
CNC1CN(c2ccn3c(-c4cc(NCc5ccc(-c6cnn(C)c6)cc5)ncn4)cnc3c2)C1 [A268, N-{[4-(1-methyl-1H-pyrazol-4-yl)phenyl]methyl}-6-{7-[3-(methylamino)azetidin-1-yl]imidazo[1,2-a]pyridin-3-yl}pyrimidin-4-amine] | 11 nM |  | 140 nM | < 15 | 10 nM
